Results on two compounds are retold here after PMC8406809 (Antimicrobial Agents and Chemotherapy, 2021).

Usually pEC50 stands for the negative decadic logarithm of the EC50, by convention in mol/L. Low values mean a high EC50, high ones a low EC50.

One series deals with Huh7.5 cells. Format: cell-based, human. The conditions noted are these: higher concentrations marked # in Fig. 4A.
In series [1] the test system is original-SARS2 (P2VeroE6 virus, SARS-CoV-2_DK-AHH1). Nature of the series: microbe, parasite or virus in culture. Format: cell-based.

pEC50: −log10 of the molar value.

Regarding `COc1c(NC(=O)C(=O)c2ccc(OCCN3CCOCC3)c3ccccc23)cc(C(C)(C)C)cc1NS(C)(=O)=O` [ITX5061], the cytotoxicity entry with Huh7.5 cells is “cytotoxic”.

For `CCC(CC)COC(=O)[C@H](C)N[P@](=O)(OC[C@H]1O[C@@](C#N)(c2ccc3c(N)ncnn23)[C@H](O)[C@@H]1O)Oc1ccccc1` [Remdesivir], the “fold-higher activity in Huh7.5 cells than in Vero E6 cells” value in series [1] is recorded as ~50 fold. This compound had a pEC50 in series [1] (Severe acute respiratory syndrome coronavirus 2, Huh7.5) of 7.52.
